From US7919504B2, “Thiadiazole modulators of PKB” (Amgen Inc., priority 2007, dated 2011) come the findings set out here.

Molecules are shown by their SMILES. pIC50: −log10 of the molar value. Counter-ions that a name gives are not always drawn.

In this experiment the target is T1, PKBα (Homo sapiens, UniProt P31749).
T1 construct: the full length PKBα and a kinase domain of PKBα with pleckstrin domain (amino acids 1-117) deleted
T1 sequence (P31749 118-480 limits assumed): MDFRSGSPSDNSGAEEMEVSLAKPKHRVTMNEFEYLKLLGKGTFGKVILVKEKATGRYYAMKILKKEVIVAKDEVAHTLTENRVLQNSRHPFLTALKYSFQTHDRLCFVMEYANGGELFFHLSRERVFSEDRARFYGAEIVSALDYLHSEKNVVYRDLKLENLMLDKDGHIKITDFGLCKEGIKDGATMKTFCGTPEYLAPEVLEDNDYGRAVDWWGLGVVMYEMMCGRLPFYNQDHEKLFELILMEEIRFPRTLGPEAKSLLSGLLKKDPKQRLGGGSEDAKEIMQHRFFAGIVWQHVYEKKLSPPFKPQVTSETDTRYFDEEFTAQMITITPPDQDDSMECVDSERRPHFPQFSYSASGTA
Put plainly: PKB kinase assay (P33-labeled ATP, synthetic peptide substrate, filter plate capture). It counts as biochemical. The following applies: with respect to PKBα. An excerpt:
The kinase assay for evaluating PKB activity comprises active PKB enzymes, a PKB specific substrate, and P^33-labeled ATP. Two form of PKBα enzymes were used, the full length PKBα and a kinase domain of PKBα with pleckstrin domain (amino acids 1-117) deleted. Both PKB enzymes were obtained from Upstate cell signaling solutions (Cat. #14-276 and 14-341). The PKB substrate used is a synthetic peptide (ARKRERTYSFGHHA (SEQ ID NO: 1)) as described in Obata et al., J. Biol. Chem. 275 (46), 36108-36115 (2000). The phosphorylated substrate was captured by a phosphocellulose membrane filter plate (MILLIPORE) and measured by a Wallac Microbeta liquid scintillation counter (Perkin Elmer). Table 1 provides the IC50 values obtained for each of the examples with respect to PKBα.
Consider `O[C@H]1CCCC[C@H]1CNc1nnc(-c2ccc3cnccc3c2)s1` [Example 21, (1S,2S)-2-((5-(Isoquinolin-6-yl)-1,3,4-thiadiazol-2-ylamino)methyl)cyclohexanol], for which the negative-log IC50 (pIC50) was 6.00 to 7.30.
`N[C@H](CCc1nnc(-c2ccc3[nH]c(=O)oc3c2)s1)Cc1ccc(C(F)(F)F)cc1` [Example 49, 6-(5-((R)-3-Amino-4-(4-(trifluoromethyl)phenyl)butyl)-1,3,4-thiadiazol-2-yl)benzo[d]oxazol-2(3H)-one] had a pIC50 above 7.30.
In turn, `N[C@H](CNc1nnc(-c2ccc3cnc(F)cc3c2)s1)Cc1ccc(C(F)(F)F)cc1` [Example 43, N-((S)-2-Amino-3-(4-(trifluoromethyl)phenyl)propyl)-5-(3-fluoroisoquinolin-6-yl)-1,3,4-thiadiazol-2-amine trifluoroacetate] had a pIC50 above 7.30.
Regarding `N[C@H](C(=O)Nc1nnc(-c2ccc3cnccc3c2)s1)[C@@H](CO)c1ccc(C(F)(F)F)cc1` [Example 31, (2S,3S)-2-Amino-4-hydroxy-N-(5-(isoquinolin-6-yl)-1,3,4-thiadiazol-2-yl)-3-(4-(trifluoromethyl)phenyl)butanamide hydrochloride], the negative-log IC50 (pIC50) is 5.00 to 6.00.
Consider `N[C@H](COc1nnc(-c2ccc3cnccc3c2)s1)Cc1ccc(C(F)(F)F)cc1` [Example 32, (2S)-1-(5-(isoquinolin-6-yl)-1,3,4-thiadiazol-2-yloxy)-3-(4-(trifluoromethyl)phenyl)propan-2-amine], for which the pIC50 was 6.00 to 7.30.
In the case of `CC(C)n1c(=O)[nH]c2ccc(-c3nnc(NC[C@@H](N)Cc4ccc(C(F)(F)F)cc4)s3)cc21` [Example 5, 6-(5-((S)-2-Amino-3-(4-(trifluoromethyl)phenyl)propylamino)-1,3,4-thiadiazol-2-yl)-1-isopropyl-1H-benzo[d]imidazol-2(3H)-one] it was 5.00 to 6.00.
In the case of `OC(CNc1nnc(-c2ccc3cnccc3c2)s1)Cc1ccc(C(F)(F)F)cc1` (racemic) [Example 30, (±)-1-(5-(Isoquinolin-6-yl)-1,3,4-thiadiazol-2-ylamino)-3-(4-(trifluoromethyl)phenyl)propan-2-ol] it was 6.00 to 7.30.
On to `N[C@H](CCc1nnc(-c2ccc3cnc(F)cc3c2)s1)Cc1ccc(C(F)(F)F)cc1` [Example 48, (2R)-4-(5-(3-Fluoroisoquinolin-6-yl)-1,3,4-thiadiazol-2-yl)-1-(4-(trifluoromethyl)phenyl)butan-2-amine], for which the pIC50 is above 7.30.
Take `N[C@H](CNc1nnc(-c2ccc3[nH]c(=O)oc3c2)s1)Cc1ccc(C(F)(F)F)cc1` [Example 11, 6-(5-((S)-2-Amino-3-(4-(trifluoromethyl)phenyl)propylamino)-1,3,4-thiadiazol-2-yl)benzo[d]oxazol-2(3H)-one]: the pIC50 is above 7.30.
The result for `N[C@H](CNc1nnc(-c2ccc3ncncc3c2)s1)Cc1ccc(C(F)(F)F)cc1` [Example 25, N-((S)-2-Amino-3-(4-(trifluoromethyl)phenyl)propyl)-5-(quinazolin-6-yl)-1,3,4-thiadiazol-2-amine] reads 6.00 to 7.30; that for `CC1(C)C2CC[C@H](CNc3nnc(-c4ccc5cnccc5c4)s3)C1C2` (stereo partly drawn) [Example 15, N-(((2S)-6,6-Dimethylbicyclo[3.1.1]heptan-2-yl)methyl)-5-(isoquinolin-6-yl)-1,3,4-thiadiazol-2-amine], 6.00 to 7.30.
In the case of `N[C@H](CNc1nnc(-c2ccc3c(c2)CC(=O)N3)s1)Cc1ccc(C(F)(F)F)cc1` [Example 2, 5-(5-((S)-2-amino-3-(4-(trifluoromethyl)phenyl)propylamino)-1,3,4-thiadiazol-2-yl)indolin-2-one] it was above 7.30.
